Reference: patent US20240050457A1 (UROVANT SCIENCES GMBH, priority 2020, published 2024)
Read-outs that look alike come from different tables or passages of the source.

What was measured:
[1] = molecular target: β3-AR (Homo sapiens, UniProt P13945); conditions: cell based in vitro assays; cited from earlier work
[2] = system: cytochrome P450; conditions: cited from earlier work
[3] = for Tmax, median: healthy subjects, 18
Method: (§1) An open-label, single-dose and multiple-dose, two-period, two-treatment single-sequence drug-drug interaction study was conducted. All subjects received Treatment A during Period 1 and Treatment B during Period 2.
(§2) Samples were stored in polypropylene tubes and kept frozen at approximately −20° C. prior to analysis. A 150-μL matrix aliquot was fortified with 20 μL of 40.0 ng/mL internal standard working solution. Analytes were isolated using an Isolute SLE+ (200-mg) supported liquid extraction 96-well plate and eluted with 800 μL of methylene chloride. The eluate was evaporated under a nitrogen stream at approximately 45° C., and the remaining residue was reconstituted with 250 μL of 90:10:40:0.7 water/methanol/acetonitrile/1.0 M ammonium acetate, v/v/v/v. The final extract was analyzed via HPLC with column-switching and MS/MS detection using positive ion electrospray. Extracts were analyzed by HPLC MS/MS using positive ion electrospray.

[4] = clinical; conditions: human, plasma, po, 0.25 mg
Method: as §1, §2

Chain of β3-AR (P13945 whole entry): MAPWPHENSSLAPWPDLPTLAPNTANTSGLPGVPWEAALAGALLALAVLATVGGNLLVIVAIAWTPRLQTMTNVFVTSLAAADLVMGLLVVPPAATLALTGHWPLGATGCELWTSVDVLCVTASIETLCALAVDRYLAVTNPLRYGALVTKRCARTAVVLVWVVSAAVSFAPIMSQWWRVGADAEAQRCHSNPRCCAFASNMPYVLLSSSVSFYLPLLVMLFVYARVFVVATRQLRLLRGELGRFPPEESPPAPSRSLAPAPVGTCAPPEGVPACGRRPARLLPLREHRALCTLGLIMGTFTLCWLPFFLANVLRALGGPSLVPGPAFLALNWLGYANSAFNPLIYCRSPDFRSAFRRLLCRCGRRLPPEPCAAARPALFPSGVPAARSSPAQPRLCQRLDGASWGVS

SMILES | selectivity for activation of β3-AR over β2-AR and β1-AR [1] | inhibitor of major enzymes produced from the cytochrome P450 genes [2] | Tmax, median ([3]; Digoxin 0.25 mg × 1 dose with vibegron (150 mg × 1 dose + 100 mg × 5 doses)) | Tmax, median ([3]; Digoxin alone, 0.25 mg single dose oral tablet) | change of half-life (T1/2) ([3]; group receiving digoxin+vibegron compared to group receiving digoxin alone) | AUC(0-inf) [4] [ng·h/mL] | Cmax [4] [ng/mL] | half-life [4] [h]
O=C(Nc1ccc(C[C@@H]2CC[C@H]([C@H](O)c3ccccc3)N2)cc1)[C@@H]1CCc2nccc(=O)n21 [Vibegron, (6S)—N-[4-[[(2S,5R)-5-[(R)-hydroxy(phenyl)methyl]pyrrolidin-2-yl]methyl]phenyl]-4-oxo-7,8-dihydro-6H-pyrrolo[1,2-a]pyrimidine-6-carboxamide] | > 9,000 fold | not an inhibitor |  |  |  |  |  | 
C[C@H]1O[C@@H](O[C@H]2[C@@H](O)C[C@H](O[C@H]3[C@@H](O)C[C@H](O[C@H]4CC[C@@]5(C)[C@H](CC[C@@H]6[C@@H]5C[C@@H](O)[C@]5(C)[C@@H](C7=CC(=O)OC7)CC[C@]65O)C4)O[C@@H]3C)O[C@@H]2C)C[C@H](O)[C@@H]1O [Digoxin] |  |  | 1.00 | 1.00 | increase | 17.2 | 1.24 | 36.8
